How the values were obtained:
[1] = system: guinea-pig ileum (acetylcholine contractions); assay: Antispasmodic activity in vitro, contractions caused by acetylcholine; conditions: added 15 minutes before spasm-producing agent
Protocol: (§1) (4) The antispasmodic activity was measured in vitro, on guinea-pig ileum, the contractions of which were caused by histammne (Hist.), acetylcholine (Achol) or barium chloride (BaCl2). The tested products were added to perfusion bath 15 minutes before the spasm-producing agents.
(§2) The dose is given in micograms (μg) per ml of bath causing complete spasm inhibition.

[2] = system: unanaesthetized, hypertension-suffering rat; assay: Antihypertensive activity (systolic arterial pressure), oral; format: in vivo; conditions: 60 mg/kg, hypertensive rat, 3 hours
Summary of the method: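 Conscious hypertensive rats given compound orally at 60 mg/kg; systolic arterial pressure measured every 30 min for 2 h pre-dose and 3 h post-dose. Scored O (no fall), + (<10 mm Hg), ++ (10–20 mm Hg), +++ (>20 mm Hg).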

[3] = system: femoral artery; assay: Vasodilator activity, femoral artery (technique of perfused paw); format: in vivo; parameters: key: O: no action; +: slight activity; ++: effect equal to half the effect of papaverine; +++: effect equal to that of papaverine; ++++: effect higher than that of papaverine; conditions: intra-arterial, 30 mg/kg, anaesthetized dog, vs papaverine at same dose
Protocol: (3) The vasodilator activity was measured at the level of femoral artery on anaesthetized dog (technique of perfused paw). The tested substances were given intra-arterially at the rate of 30 mg/kg. Results are expressed with respect to papaverine tested at the same dose.
++: effect equal to half the effect of papaverine.
+++: effect equal to that of papaverine.
++++: effect higher than that of papaverine.

[4] = Acute toxicity, oral, LD50 (Litchfield and Wilcoxon); conditions: mouse, in vivo, fasted male mice, confidence limits p=95% in brackets
Protocol: (1) The acute toxicity was determined on fasted male mice. The tested substances were orally administered and LD50 values (lethal dose for 50% of animals) were calculated according to the method of Litchfield and Wilcoxon (J. Pharmacol. exp. Ther. 96, 94-113, 1949). These LD50 values are given in mg/kg and also, when possible, with their confidence limits for p=95%.

[5] = system: guinea-pig ileum (barium chloride contractions); assay: Antispasmodic activity in vitro, contractions caused by barium chloride; conditions: added 15 minutes before spasm-producing agent
Protocol: as §1, §2

[6] = system: guinea-pig ileum (histamine contractions); assay: Antispasmodic activity in vitro, contractions caused by histamine; conditions: added 15 minutes before spasm-producing agent
Protocol: as §1, §2

Compound | ANTISPASMODIC ACTIVITY ACHOL (dose causing complete spasm inhibition) [1] [μg per ml] | ANTIHYPERTENSIVE ACTIVITY [2] | VASODILATOR ACTIVITY [3] | LD50 [4] [mg/kg] | ANTISPASMODIC ACTIVITY BaCl2 (dose causing complete spasm inhibition) [5] [μg per ml] | ANTISPASMODIC ACTIVITY HIST. (dose causing complete spasm inhibition) [6] [μg per ml]
CC(NCCOc1ccccc1)C(O)c1ccc2c(c1)CCCS2 (stereo not shown) [No 20] | 3.3 | +++ (reduction higher than 20 mm Hg) | +++ | > 4000 | 8.3 | 8.3
CC(NCCCCc1ccc(Cl)cc1)C(O)c1ccc2c(c1)CCCS2 (stereo not shown) [No 23] | 1.7 | +++ (reduction higher than 20 mm Hg) | ++++ | ~2100 | 0.8 | 0.8
Cc1ccccc1N1CCN(C(C)C(O)c2ccc3c(c2)CCCS3)CC1 (stereo not shown) [No 15] | 3.3 | +++ (reduction higher than 20 mm Hg) | +++ |  | > 16.7 | 0.8
1-(5-indanyl)-2-(4-phenylbutylamino)-1-propanol [No 163] | 0.8 | +++ (reduction higher than 20 mm Hg) | ++++ |  | 0.8 | 0.33
Cc1ccccc1N1CCN(C(C)C(O)c2ccc3c(c2)CCC(C)S3)CC1 (stereo not shown) [No 10] | 16.7 | +++ (reduction higher than 20 mm Hg) | ++ | > 4000 | 8.3 | 0.33
CC1Cc2cc(C(O)C(C)NCCCCc3ccccc3)ccc2S1 (stereo not shown) [No 19] | 1.7 | +++ (reduction higher than 20 mm Hg) | +++ | 1550 | 0.8 | 0.8
CC(C(O)c1ccc2c(c1)CCCS2)N1CCC(Cc2ccccc2)CC1 (stereo not shown) [No 26] | 1.7 | +++ (reduction higher than 20 mm Hg) |  |  | 0.8 | 0.017
CC1CCc2cc(C(O)C(C)NCCc3ccccc3)ccc2S1 (stereo not shown) [No 9] | 3.3 |  | +++ | ~2750 | 0.8 | 3.3
CCCCCCCCNC(C)C(O)c1ccc2c(c1)CCCS2 (stereo not shown) [No 1, 1-(6-Thiochromanyl)-2-n-octylamino-1-propanol] | 3.3 | ++ (reduction of 10 to 20 mm Hg) | ++++ | > 4000 | 1.7 | 3.3
CCCCCCCCNC(C)C(O)c1ccc2c(c1)CCS2 (stereo not shown) [No 3, 1-(2,3-dihydro-5-benzo[b]thienyl)-2-n-octylamino-1-propanol] | 16.7 | +++ (reduction higher than 20 mm Hg) | +++ | 4450 | 8.3 | 8.3
CC(NCCCCc1ccccc1)C(O)c1ccc2c(c1)CCCS2 (stereo not shown) [No 2] | 8.3 | +++ (reduction higher than 20 mm Hg) | ++++ | > 4000 | 16.7 | 1.7
CC(NCCC(c1ccccc1)c1ccccc1)C(O)c1ccc2c(c1)CCCS2 (stereo not shown) [No 16] | 0.8 | ++ (reduction of 10 to 20 mm Hg) | +++ | > 4000 | 0.33 | 0.3
CC(NCCCc1ccccc1)C(O)c1ccc2c(c1)CCCS2 (stereo not shown) [No 17] | 1.7 | +++ (reduction higher than 20 mm Hg) | +++ | > 4000 | 1.7 | 0.8
